Our source for the IC50 values is patent publication US20070254903A1, “Novel Spiroindoline or Spiroisoquinoline Compounds, Methods of Use and Compositions Thereof” (ARENA PHARMACEUTICALS, INC., priority 2003, published 2007).

pIC50: −log10 of the molar value.

This experiment addresses T1, human Mas receptor (Homo sapiens, UniProt P04201).
T1 construct: expressed in transfected cells
T1 sequence (P04201 1-325): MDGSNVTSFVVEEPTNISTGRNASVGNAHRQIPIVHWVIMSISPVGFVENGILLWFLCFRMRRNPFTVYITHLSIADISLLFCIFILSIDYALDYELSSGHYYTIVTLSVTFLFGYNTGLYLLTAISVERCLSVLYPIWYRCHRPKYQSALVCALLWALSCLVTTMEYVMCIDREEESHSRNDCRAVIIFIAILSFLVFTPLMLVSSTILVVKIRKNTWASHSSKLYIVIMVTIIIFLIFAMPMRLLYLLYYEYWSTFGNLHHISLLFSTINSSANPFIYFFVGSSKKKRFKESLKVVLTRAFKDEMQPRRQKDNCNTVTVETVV
In words: Mas receptor IP3 assay (inverse agonist assay). In kind it is cell-based. As to conditions: HEK293 cells over-expressing human Mas receptor; average from several experiments. How it is done:
The Mas receptor IP3 assay was performed using a mammalian cell line (HEK293) which was transfected with a plasmid containing the human Mas receptor and selected for stable expression of the receptor. For the inverse agonist assay, higher levels of Mas receptor constitutive activity were desired. To achieve this, Mas receptor expression levels were increased by transiently transfecting the same Mas receptor stable cell line with additional human Mas receptor plasmid DNA following standard procedures. These cells were used in the Mas receptor IP3 assay approximately 24 hours post-transfection.
Cells were split into 96-well plates (50,000 cells/well) and allowed to attach for a period of 6 hours. The growth medium was then replaced with medium supplemented with 4 μCi/ml [^3H]myo-inositol (100 μl; Perkin Elmer Life Sciences) and the cells were allowed to incubate for approximately 20 hours. Test compounds were serially diluted in inositol-free media containing 10 mM LiCl. The media in the plates was removed by aspiration, replaced with these test compound solutions and incubated at 37° C. for 1 hour. Following this incubation, the media was removed by aspiration and replaced with buffer containing 0.1M formic acid. The plates were then frozen overnight at −80° C. to achieve complete cell lysis.
The following day, the assay plates were thawed at room temperature. The thawed contents were then transfered to 96-well filter plates (Millipore, Multiscreen) pre-loaded with resin (Biorad, AG1-X8 100-200 mesh, formate form). The plate was filtered using a vacuum manifold and the resin was washed multiple times with water. An elution buffer was then applied (200 μl, 0.2M Ammonium formate/0.1M formic acid) and the resulting eluent was collected, under vacuum, in a 96-well collection plate. Aliquots of the eluent (80 μl) were transferred to filter plates (Whatman, Unifilter GF/C) and dried in a 45° C. oven overnight. Dried plates were counted on a scintillation counter following the addition of an appropriate scintillant (Perkin Elmer Life Sciences, Optiphase Supermix or Hi-Safe 3).
`C=CCN1CCC2(CC1)CN(C(=O)c1ccc(F)c(C(F)(F)F)c1)c1ccc(F)cc12` [Compound 88, 1′-(allyl)-1,2-dihydro-5-fluoro-1-(3-trifluoromethyl-4-fluoro-benzoyl)-spiro[3H-indole-3,4′-piperidine]] gave a negative-log IC50 (pIC50) of 6.05.

In turn, `O=C(c1ccccc1F)N1CC2(CCN(CC3CC3)CC2)c2cc(F)ccc21` [Compound 139, 1′-(cyclopropylmethyl)-1,2-dihydro-5-fluoro-1-(2-fluoro-benzoyl)-spiro[3H-indole-3,4′-piperidine]] gave a negative-log IC50 (pIC50) of 6.14. This pIC50 and that of the molecule before are within 0.2 log units of each other.

`O=C(c1cccc2ccccc12)N1CC2(CCN(CC3CC3)CC2)c2cc(F)ccc21` [Compound 159, 1′-(cyclopropylmethyl)-1,2-dihydro-5-fluoro-1-(naphthylene-1-carbonyl)-spiro[3H-indole-3,4′-piperidine]]: the pIC50 was 6.30.
